ChEMBL document CHEMBL4033683, “Dual functional small molecule fluorescent probes for image-guided estrogen receptor-specific targeting coupled potent antiproliferative potency for breast cancer therapy” (Bioorg Med Chem, 2017)
The source made the active and inactive calls. The calls are words filed in the database; no cut-off is given here.

How the values were obtained:
[1] = molecular target: T1, Estrogen receptor (Homo sapiens) (UniProt P03372); experiment: Agonist activity at ERalpha (unknown origin) expressed in HEK293T cells after 24 hrs by luciferase reporter gene assay; format: cell-based
T1 sequence (whole entry): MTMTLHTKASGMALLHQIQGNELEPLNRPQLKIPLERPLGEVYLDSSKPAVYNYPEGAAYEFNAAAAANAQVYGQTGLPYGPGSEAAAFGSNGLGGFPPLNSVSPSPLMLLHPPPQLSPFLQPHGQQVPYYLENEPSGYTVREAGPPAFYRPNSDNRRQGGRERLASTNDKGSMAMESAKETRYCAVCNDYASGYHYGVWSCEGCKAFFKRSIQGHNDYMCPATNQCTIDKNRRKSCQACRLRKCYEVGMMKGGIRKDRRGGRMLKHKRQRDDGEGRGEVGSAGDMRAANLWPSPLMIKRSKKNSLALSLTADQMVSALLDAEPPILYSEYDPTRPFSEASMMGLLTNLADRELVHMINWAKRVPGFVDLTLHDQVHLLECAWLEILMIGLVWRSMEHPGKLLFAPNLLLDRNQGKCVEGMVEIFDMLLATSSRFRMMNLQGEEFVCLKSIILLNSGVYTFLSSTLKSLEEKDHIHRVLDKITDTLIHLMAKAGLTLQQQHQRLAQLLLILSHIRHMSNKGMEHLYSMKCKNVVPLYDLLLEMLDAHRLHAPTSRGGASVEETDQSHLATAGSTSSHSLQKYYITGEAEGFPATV

[2] = molecular target: T1, Estrogen receptor (Homo sapiens); experiment: Antagonist activity at ERalpha (unknown origin) expressed in HEK293T cells assessed as inhibition of estradiol-induced response after 24 hrs by luciferase reporter gene assay relative to estradiol; format: cell-based
Estrogen receptor beta [3] = molecular target: T2, Estrogen receptor beta (Homo sapiens, UniProt Q92731); experiment: Agonist activity at ERbeta (unknown origin) expressed in HEK293T cells after 24 hrs by luciferase reporter gene assay; format: cell-based
Estrogen receptor beta [4] = molecular target: T2, Estrogen receptor beta; experiment: Agonist activity at ERbeta (unknown origin) expressed in HEK293T cells after 24 hrs by luciferase reporter gene assay relative to estradiol; format: cell-based
MDA-MB-231 = experiment: Antiproliferative activity against human MDA-MB-231 cells after 72 hrs by MTT assay; format: functional, cell-based; details: MDA-MB-231, 72 h
MDA-MB-453 = experiment: Antiproliferative activity against human MDA-MB-453 cells after 72 hrs by MTT assay; format: functional, cell-based; details: MDA-MB-453, 72 h
MCF7 = experiment: cells; details: Homo sapiens, MCF7, 72 h
Estrogen receptor = molecular target: T3, Estrogen receptor (Homo sapiens, UniProt P03372); experiment: Antagonist activity at ERalpha (unknown origin) expressed in HEK293T cells assessed as inhibition of estradiol-induced response after 24 hrs by luciferase reporter gene assay; format: cell-based
T3 sequence (P03372 whole entry): T1 sequence (whole entry)

[5] = molecular target: T1, Estrogen receptor (Homo sapiens); experiment: Binding affinity to ERalpha (unknown origin) at 1 uM by fluorescence assay
[6] = molecular target: T1, Estrogen receptor (Homo sapiens); experiment: Binding affinity to ERalpha (unknown origin) at 1 uM in presence of estradiol by fluorescence assay
Estrogen receptor beta [7] = molecular target: T2, Estrogen receptor beta; experiment: Binding affinity to ERbeta (unknown origin) at 1 uM by fluorescence assay
Estrogen receptor beta [8] = molecular target: T2, Estrogen receptor beta; experiment: Binding affinity to ERbeta (unknown origin) at 1 uM in presence of estradiol by fluorescence assay
Homo sapiens [9] = species: Homo sapiens; experiment: Binding affinity to ER in human MCF7 cells assessed as increase in fluorescence in nucleus at 10 uM after 2 hrs by confocal laser scanning microscopic method; format: cell-based
Homo sapiens [10] = species: Homo sapiens; experiment: Binding affinity to ER in human MCF7 cells assessed as increase in fluorescence in cytosol at 10 uM after 2 hrs by confocal laser scanning microscopic method; format: cell-based
[11] = Drug uptake in human MDA-MB-231 cells at 10 uM after 2 hrs by confocal laser scanning microscopic method; format: ADME, cell-based; details: mda-mb-231, 2 h
Homo sapiens [12] = species: Homo sapiens; experiment: Binding affinity to ER in human MCF7 cells at 10 uM preincubated for 2 hrs followed by estradiol addition measured after 10 mins by confocal laser scanning microscopic method; format: cell-based
Homo sapiens [13] = species: Homo sapiens; experiment: Binding affinity to ER in human MCF7 cells at 1 uM up to 4 mins by real time imaging analysis; format: cell-based
Homo sapiens [14] = species: Homo sapiens; experiment: Binding affinity to ER in human MCF7 cells assessed as increase in fluorescence in cytosol at 1 uM up to 4 mins by real time imaging analysis; format: cell-based
Homo sapiens [15] = species: Homo sapiens; experiment: Binding affinity to ER in human MCF7 cells assessed as increase in fluorescence in nucleus at 1 uM up to 4 mins by real time imaging analysis; format: cell-based
[16] = Drug uptake in cytosol of human MCF7 cells at 1 uM up to 4 mins by real time fluorescence imaging analysis; format: ADME
[17] = Drug uptake in nucleus of human MCF7 cells at 1 uM up to 4 mins by real time fluorescence imaging analysis; format: ADME

T2 sequence (Q92731 whole entry): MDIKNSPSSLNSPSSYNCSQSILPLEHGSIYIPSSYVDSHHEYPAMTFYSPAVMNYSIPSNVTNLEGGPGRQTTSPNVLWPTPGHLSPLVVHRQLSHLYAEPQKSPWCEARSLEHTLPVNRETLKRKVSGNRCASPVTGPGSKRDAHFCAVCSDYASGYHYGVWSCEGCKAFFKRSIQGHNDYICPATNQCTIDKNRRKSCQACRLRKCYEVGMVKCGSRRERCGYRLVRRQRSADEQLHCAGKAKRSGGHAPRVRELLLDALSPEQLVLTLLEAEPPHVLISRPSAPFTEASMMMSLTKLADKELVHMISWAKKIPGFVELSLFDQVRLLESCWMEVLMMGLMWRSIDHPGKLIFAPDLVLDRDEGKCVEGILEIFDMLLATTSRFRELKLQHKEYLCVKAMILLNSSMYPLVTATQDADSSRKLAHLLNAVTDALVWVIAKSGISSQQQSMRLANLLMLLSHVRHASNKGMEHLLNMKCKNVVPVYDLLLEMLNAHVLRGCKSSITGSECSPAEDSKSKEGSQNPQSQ

Structure (SMILES)	Activity [1]	Efficacy [2] [%]	EC50 (Estrogen receptor beta [3]) [µM]	Efficacy (Estrogen receptor beta [4]) [%]	IC50 (MDA-MB-231) [µM]	IC50 (MDA-MB-453) [µM]	IC50 (MCF7) [µM]	IC50 (Estrogen receptor) [µM]	further results
O=c1oc2cc(O)ccc2cc1-c1ccc(O)cc1	inactive	101	0.542	138	> 100	> 100	> 100	–	–
CCC(=C(c1ccc(O)cc1)c1ccc(OCCN(C)C)cc1)c1ccccc1	–	–	–	–	20.1	10.4	–	–	–
O=c1oc2cc(O)ccc2c(-c2ccc(O)c(F)c2)c1-c1ccc(O)c(F)c1	inactive	57.8	–	-11.2	> 100	31.7	40.1	0.219	–
CCc1c(-c2ccc(O)cc2F)c(=O)oc2cc(O)ccc12	inactive	26.4	–	-6.9	> 100	8.03	16.1	0.012	Activity [5]: Active; Activity [6]: inactive; Activity (Estrogen receptor beta [7]): Active; Activity (Estrogen receptor beta [8]): inactive; Activity (Homo sapiens [9]): Active; Activity (Homo sapiens [10]): Active; Drug uptake [11]: Not Active; Activity (Homo sapiens [12]): inactive; Activity (Homo sapiens [13]): Active; Activity (Homo sapiens [14]): Active; Activity (Homo sapiens [15]): Active; Drug uptake [16]: Not Active; Drug uptake [17]: Not Active
CCc1c(-c2ccc(O)c(F)c2)c(=O)oc2cc(O)ccc12	inactive	–	–	–	48.6	39.8	50	–	–
Cc1cc(O)ccc1-c1c(C)c2ccc(O)cc2oc1=O	inactive	65.3	0.011	72.1	> 100	55.3	> 100	0.112	–
Cc1c(-c2ccc(O)cc2Cl)c(=O)oc2cc(O)ccc12	inactive	84.6	0.894	12.9	46.1	26.7	21.6	1.24	–
C[C@]12CC[C@@H]3c4ccc(O)cc4CC[C@H]3[C@@H]1CC[C@@]2(O)C#Cc1ccc(CNC(=O)c2ccc(-c3c4ccc(=O)cc-4oc4cc(O)ccc34)c(C(=O)O)c2)cc1	–	–	–	–	–	–	–	–	Drug uptake [11]: Active; Activity (Homo sapiens [13]): inactive
O=c1oc2cc(O)ccc2cc1-c1ccc(O)c(F)c1	inactive	124	0.207	66.7	> 100	> 100	> 100	–	–
CCc1c(-c2ccc(O)cc2Cl)c(=O)oc2cc(O)ccc12	inactive	120	0.343	68.2	> 100	37.2	49.3	–	Activity [5]: Active; Activity [6]: inactive; Activity (Estrogen receptor beta [7]): Active; Activity (Estrogen receptor beta [8]): inactive; Activity (Homo sapiens [9]): Active; Activity (Homo sapiens [10]): Active; Drug uptake [11]: Not Active; Activity (Homo sapiens [12]): inactive
O=c1oc2cc(O)ccc2c(-c2ccc(O)cc2)c1-c1ccc(O)cc1	–	15.2	0.012	33.4	59.8	29.1	49	0.222	–
